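How tested: cells in 96-well plates exposed to compound for 48 hours at five concentrations. GI50 = concentration required for 50% inhibition of growth.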 Activity calls are given as the source filed them. Cut-off read from the data, not from the text of the source: active = GI50 up to about 1.1 µM and inactive = higher.
How the values were obtained:
Assay in all cases: NCI tumour cell line growth inhibition, 48 h
MDA-MB-231 = test system: MDA-MB-231
HL-60 = test system: HL-60
NCI-H522 = test system: NCI-H522
K562 = test system: K562
UACC-62 = test system: UACC-62
SK-MEL-28 = test system: SK-MEL-28
HOP-62 = test system: HOP-62
M14 = test system: M14
786-0 = test system: 786-0
IGROV-1 = test system: IGROV-1
COLO 205 = test system: COLO 205
HT-29 = test system: HT-29
KM12 = test system: KM12
A549 = test system: A549
RPMI-8226 = test system: RPMI-8226
DU-145 = test system: DU-145
SNB-19 = test system: SNB-19
NCI-H23 = test system: NCI-H23
ACHN = test system: ACHN
SR = test system: SR

Measured: GI50

CSCCC(NC(=O)C(Cc1c[nH]c2ccccc12)NC(=O)CCNC(=O)OC(C)(C)C)C(=O)NC(CC(=O)O)C(=O)NC(Cc1ccccc1)C(N)=O (centres undefined)
inactive: MDA-MB-231 > 50 µM | HL-60 > 50 µM | NCI-H522 > 50 µM | K562 > 50 µM | UACC-62 > 50 µM | SK-MEL-28 > 50 µM | HOP-62 > 50 µM | M14 > 50 µM | 786-0 > 50 µM | IGROV-1 > 50 µM | COLO 205 > 50 µM | HT-29 > 50 µM | KM12 > 50 µM | A549 > 50 µM | RPMI-8226 > 50 µM | DU-145 > 50 µM

O=C(/C=C/c1ccc(-c2ccccc2)cc1)NCc1ccc(C(=O)NCc2ccccc2)cc1
inactive: MDA-MB-231 > 100 µM | NCI-H522 > 100 µM | UACC-62 > 100 µM | SK-MEL-28 > 100 µM | HOP-62 57.1 µM | M14 > 100 µM | 786-0 > 100 µM | IGROV-1 > 100 µM | COLO 205 > 100 µM | SNB-19 > 100 µM | NCI-H23 90.2 µM | ACHN > 100 µM | HT-29 71.1 µM | KM12 > 100 µM | A549 > 100 µM | DU-145 > 100 µM

COc1cc(/C=N/NC(=O)c2ccc(NC(C)=O)cc2OC)ccc1O
inactive: HL-60 > 100 µM | NCI-H522 96.2 µM | K562 > 100 µM | UACC-62 61.9 µM | SK-MEL-28 > 100 µM | M14 > 100 µM | 786-0 > 100 µM | IGROV-1 64 µM | COLO 205 56.1 µM | SNB-19 74.3 µM | NCI-H23 54.6 µM | ACHN 38.9 µM | SR > 100 µM | HT-29 > 100 µM | KM12 > 100 µM | A549 > 100 µM | RPMI-8226 > 100 µM | DU-145 69.5 µM

Oc1ccc(O)c(-n2cccn2)c1
inactive: HL-60 18.7 µM | NCI-H522 16.6 µM | K562 24.2 µM | UACC-62 50.4 µM | SK-MEL-28 > 100 µM | HOP-62 > 100 µM | M14 > 100 µM | 786-0 62.1 µM | IGROV-1 > 100 µM | COLO 205 23 µM | SNB-19 > 100 µM | NCI-H23 > 100 µM | ACHN > 100 µM | HT-29 65.9 µM | KM12 > 100 µM | A549 > 100 µM | RPMI-8226 25.6 µM

COc1ccc(CNc2nc3ccccc3nc2-c2cccs2)cc1OC
inactive: HL-60 22 µM | K562 59.4 µM | SK-MEL-28 84.5 µM | HOP-62 > 100 µM | 786-0 33.5 µM | COLO 205 9.98 µM | SNB-19 > 100 µM | NCI-H23 25.2 µM | ACHN 23.1 µM | SR 15.5 µM | HT-29 46.2 µM | A549 16.2 µM | RPMI-8226 72.3 µM

Cc1cn(C2CC(N=[N+]=[N-])C(CO)O2)c(=O)n(CCCCBr)c1=O (centres undefined)
inactive: MDA-MB-231 35.6 µM | NCI-H522 > 100 µM | K562 > 100 µM | UACC-62 > 100 µM | SK-MEL-28 > 100 µM | HOP-62 > 100 µM | M14 > 100 µM | 786-0 > 100 µM | IGROV-1 > 100 µM | COLO 205 > 100 µM | SNB-19 > 100 µM | NCI-H23 96.8 µM | ACHN > 100 µM | HT-29 > 100 µM | KM12 > 100 µM | A549 > 100 µM | RPMI-8226 50.7 µM | DU-145 > 100 µM

CC1=C2CCCC2=C/C(=N/Nc2ccc([N+](=O)[O-])cc2[N+](=O)[O-])CC1
inactive: HL-60 > 100 µM | NCI-H522 > 100 µM | K562 > 100 µM | UACC-62 > 100 µM | SK-MEL-28 > 100 µM | HOP-62 > 100 µM | M14 > 100 µM | 786-0 > 100 µM | IGROV-1 > 100 µM | COLO 205 > 100 µM | SNB-19 > 100 µM | NCI-H23 > 100 µM | ACHN > 100 µM | SR > 100 µM | HT-29 > 100 µM | KM12 > 100 µM | A549 > 100 µM | RPMI-8226 > 100 µM

N#C/C1=C(\N)CCSSSC1
inactive: HL-60 > 10 µM | NCI-H522 20.9 µM | K562 55.3 µM | SK-MEL-28 43.6 µM | HOP-62 29.2 µM | M14 28.8 µM | 786-0 35.8 µM | IGROV-1 29.7 µM | COLO 205 30.7 µM | SNB-19 37.2 µM | NCI-H23 32.1 µM | ACHN 41.7 µM | SR 33.7 µM | HT-29 31 µM | KM12 51.1 µM | A549 45.2 µM | RPMI-8226 44.8 µM

CC(C)[Si](OC1=C(C(=O)N(C)c2ccccc2Cl)CCC1)(C(C)C)C(C)C
inactive: MDA-MB-231 16 µM | NCI-H522 14.1 µM | SK-MEL-28 21.5 µM | HOP-62 17.6 µM | M14 19 µM | 786-0 21.7 µM | IGROV-1 18.3 µM | COLO 205 17.8 µM | SNB-19 15.8 µM | NCI-H23 15.7 µM | ACHN 19.9 µM | HT-29 15.3 µM | KM12 20.6 µM | A549 15 µM | RPMI-8226 19.2 µM | DU-145 22 µM

CCc1cc(Cc2cc(CC)c(NC(=O)C3=CC(=O)CC(c4ccc(OC)cc4)O3)c(CC)c2Cl)c(Cl)c(CC)c1NC(=O)C1=CC(=O)CC(c2ccc(OC)cc2)O1 (centres undefined)
inactive: HL-60 23.2 µM | K562 32.1 µM | UACC-62 23.8 µM | SK-MEL-28 23.3 µM | HOP-62 22.2 µM | M14 17 µM | 786-0 18.4 µM | IGROV-1 22.4 µM | COLO 205 17.8 µM | SNB-19 21.4 µM | NCI-H23 17.1 µM | ACHN 17.9 µM | SR 22.5 µM | HT-29 20.2 µM | KM12 10.5 µM | A549 23.9 µM | RPMI-8226 15.5 µM

C=Cc1nc2nnc(CCCCCCCCc3nnc4nc(C=C)[nH]n34)n2[nH]1
inactive: MDA-MB-231 95.5 µM | HL-60 34 µM | K562 21.6 µM | SK-MEL-28 > 100 µM | HOP-62 > 100 µM | M14 > 100 µM | 786-0 80.9 µM | IGROV-1 > 100 µM | COLO 205 > 100 µM | SNB-19 > 100 µM | NCI-H23 67.8 µM | ACHN > 100 µM | HT-29 > 100 µM | KM12 > 100 µM | A549 51.8 µM | DU-145 > 100 µM

Cc1nnc2n1N=C(c1ccc(-c3ccc([N+](=O)[O-])cc3)o1)CS2
inactive: HL-60 > 100 µM | NCI-H522 > 100 µM | K562 > 100 µM | UACC-62 > 100 µM | SK-MEL-28 > 100 µM | HOP-62 > 100 µM | M14 > 100 µM | 786-0 > 100 µM | IGROV-1 > 100 µM | COLO 205 > 100 µM | SNB-19 > 100 µM | NCI-H23 35.1 µM | ACHN > 100 µM | SR > 100 µM | KM12 > 100 µM | A549 > 100 µM | RPMI-8226 > 100 µM
